Reference: US20230077362A1 (CORTEVA AGRISCIENCE LLC, priority 2019, published 2023)

Legend:
[1] = system: Beet Armyworm (Spodoptera exigua) ("BAW"), second instar larvae; assay: Bioassay on beet armyworm (BAW), 128-well diet tray assay; format: in vivo; conditions: for pest or weed control at 50 µg/cm2: Spodoptera exigua, read-out: BAW rating; for BAW rating / BAW rating (% control or mortality class): Table ABC, species BAW; for BAW rating: C = not tested, D = no activity noticed; for BAW rating (% control or mortality class): 128-well diet tray assay, second instar larvae
Method in brief: (§1)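 Sealed trays, 25° C., 14:10 light:dark, 5–7 d. Per-well % mortality recorded, mean of eight wells reported.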

[2] = system: Cabbage Looper (Trichoplusia ni) ("CL"), second instar larvae; assay: Bioassay on cabbage looper (CL), 128-well diet tray assay; format: in vivo; conditions: for pest or weed control at 50 µg/cm2 / mortality at 50 µg/cm2: Trichoplusia ni; for pest or weed control at 50 µg/cm2: read-out: CL rating; for CL rating / mortality at 50 µg/cm2: Table ABC, species CL; for CL rating: C = not tested, D = no activity noticed; for mortality at 50 µg/cm2: 128-well diet tray assay, second instar larvae, read-out: CL rating (% control or mortality class)
Method in brief: as §1

Structure (SMILES)	pest or weed control at 50 µg/cm2 [1] [%]	pest or weed control at 50 µg/cm2 [2] [%]	further results
Cc1ccc(COCC(F)(F)F)c(N2C(=O)CS/C2=N\C(=O)Nc2ccc(-c3nnn(-c4ccc(OC(F)(F)F)cc4)n3)cc2)c1 [Compound J767, (Z)-1-(3-(5-Methyl-2-((2,2,2-trifluoroethoxy)methyl)phenyl)-4-oxothiazolidin-2-ylidene)-3-(4-(2-(4-(trifluoromethoxy)phenyl)-2H-tetrazol-5-yl)phenyl)urea]	50 to 100	50 to 100	–
Cc1ccc(COCC(F)F)c(N2C(=O)CS/C2=N\C(=O)Nc2ccc(-c3nnn(-c4ccc(OC(F)(F)F)cc4)n3)cc2)c1 [Compound J768, (Z)-1-(3-(2-((2,2-Difluoroethoxy)methyl)-5-methylphenyl)-4-oxothiazolidin-2-ylidene)-3-(4-(2-(4-(trifluoromethoxy)phenyl)-2H-tetrazol-5-yl)phenyl)urea]	50 to 100	50 to 100	–
Cc1ccc(COCC(F)(F)F)c(N2C(=O)CS/C2=N\C(=O)Nc2ccc(-c3ncn(-c4ccccc4)n3)cc2F)c1 [Compound J769, (Z)-1-(2-Fluoro-4-(1-phenyl-1H-1,2,4-triazol-3-yl)phenyl)-3-(3-(5-methyl-2-((2,2,2-trifluoroethoxy)methyl)phenyl)-4-oxothiazolidin-2-ylidene)urea]	50 to 100	50 to 100	–
Cc1ccc(COCC(F)(F)F)c(N2C(=O)CS/C2=N\C(=O)Nc2ccc(-c3noc(-c4ccc(OC(F)(F)F)cc4)n3)cc2F)c1 [Compound J770, (Z)-1-(2-Fluoro-4-(5-(4-(trifluoromethoxy)phenyl)-1,2,4-oxadiazol-3-yl)phenyl)-3-(3-(5-methyl-2-((2,2,2-trifluoroethoxy)methyl)phenyl)-4-oxothiazolidin-2-ylidene)urea]	50 to 100	50 to 100	–
Cc1ccc(COCC(F)F)c(N2C(=O)CS/C2=N\C(=O)Nc2ccc(-c3noc(-c4ccc(OC(F)(F)F)cc4)n3)cc2F)c1 [Compound J771, (Z)-1-(3-(2-((2,2-Difluoroethoxy)methyl)-5-methylphenyl)-4-oxothiazolidin-2-ylidene)-3-(2-fluoro-4-(5-(4-(trifluoromethoxy)phenyl)-1,2,4-oxadiazol-3-yl)phenyl)urea]	50 to 100	50 to 100	–
COCc1ccc(C)cc1N1C(=O)CS/C1=N\C(=O)Nc1ccc(-c2noc(-c3ccc(OC(F)(F)F)cc3)n2)cc1F [Compound J772, (Z)-1-(2-Fluoro-4-(5-(4-(trifluoromethoxy)phenyl)-1,2,4-oxadiazol-3-yl)phenyl)-3-(3-(2-(methoxymethyl)-5-methylphenyl)-4-oxothiazolidin-2-ylidene)urea]	50 to 100	50 to 100	–
COCc1ccc(N(C)C)cc1N1C(=O)CS/C1=N\C(=O)Nc1ccc(-c2noc(-c3ccc(OC(F)(F)F)cc3)n2)cc1F [Compound J773, (Z)-1-(3-(5-(Dimethylamino)-2-(methoxymethyl)phenyl)-4-oxothiazolidin-2-ylidene)-3-(2-fluoro-4-(5-(4-(trifluoromethoxy)phenyl)-1,2,4-oxadiazol-3-yl)phenyl)urea]	50 to 100	50 to 100	–
Cc1ccc(COCC(F)(F)F)c(N2C(=O)C(CO)(CO)S/C2=N\C(=O)Nc2ccc(-c3ncn(-c4ccc(OC(F)(F)F)cc4)n3)cc2F)c1 [Compound J778, (Z)-1-(5,5-Bis(hydroxymethyl)-3-(5-methyl-2-((2,2,2-trifluoroethoxy)methyl)phenyl)-4-oxothiazolidin-2-ylidene)-3-(2-fluoro-4-(1-(4-(trifluoromethoxy)phenyl)-1H-1,2,4-triazol-3-yl)phenyl)urea]	50 to 100	50 to 100	–
Cc1ccc(COCCC(F)(F)F)c(N2C(=O)CS/C2=N\C(=O)Nc2ccc(-c3ncn(-c4ccccc4)n3)cc2F)c1 [Compound J779, (Z)-1-(2-Fluoro-4-(1-phenyl-1H-1,2,4-triazol-3-yl)phenyl)-3-(3-(5-methyl-2-((3,3,3-trifluoropropoxy)methyl)phenyl)-4-oxothiazolidin-2-ylidene)urea]	50 to 100	50 to 100	–
Cc1ccc(COCC(F)(F)F)c(N2C(=O)CS/C2=N\C(=O)Nc2ccc(-c3ncn(-c4ccccc4)n3)cc2C)c1 [Compound J780]	–	–	BAW rating [1]: A (50-100); CL rating [2]: A (50-100)
Cc1ccc(COCCC(F)(F)F)c(N2C(=O)CS/C2=N\C(=O)Nc2ccc(-c3ncn(-c4ccccc4)n3)cc2C)c1 [Compound J781, (Z)-1-(3-(5-Methyl-2-((3,3,3-trifluoropropoxy)methyl)phenyl)-4-oxothiazolidin-2-ylidene)-3-(2-methyl-4-(1-phenyl-1H-1,2,4-triazol-3-yl)phenyl)urea]	50 to 100	50 to 100	–
Cc1ccc(COCC(F)(F)F)c(N2C(=O)CS/C2=N\C(=O)Nc2ccc(-c3ncn(-c4ccc(F)cc4)n3)cc2F)c1 [Compound J782, (Z)-1-(2-Fluoro-4-(1-(4-fluorophenyl)-1H-1,2,4-triazol-3-yl)phenyl)-3-(3-(5-methyl-2-((2,2,2-trifluoroethoxy)methyl)phenyl)-4-oxothiazolidin-2-ylidene)urea]	50 to 100	50 to 100	–
CCCc1ccc(C)cc1N1C(=O)CS/C1=N\C(=O)Nc1ccc(-c2ncn(-c3ccc(N(C(=O)OC)C(F)(F)F)cc3)n2)cc1F [Compound J783, Methyl (Z)-(4-(3-(3-fluoro-4-(3-(3-(5-methyl-2-propylphenyl)-4-oxothiazolidin-2-ylidene)ureido)phenyl)-1H-1,2,4-triazol-1-yl)phenyl)(trifluoromethyl)carbamate]	50 to 100	50 to 100	–
CCCc1ccc(C)cc1N1C(=O)CS/C1=N\C(=O)Nc1ccc(-c2ncn(-c3ccc(N(C(=O)OC)C(F)(F)F)cc3)n2)cc1C [Compound J784]	–	–	BAW rating [1]: A (50-100); CL rating [2]: A (50-100)
Cc1ccc(COCC(F)(F)F)c(N2C(=O)CS/C2=N\C(=O)Nc2ccc(-n3cnc(-c4ccc(OC(F)(F)F)cc4)c3)cc2Cl)c1 [Compound J786, (Z)-1-(2-Chloro-4-(4-(4-(trifluoromethoxy)phenyl)-1H-imidazol-1-yl)phenyl)-3-(3-(5-methyl-2-((2,2,2-trifluoroethoxy)methyl)phenyl)-4-oxothiazolidin-2-ylidene)urea]	–	–	BAW rating (% control or mortality class) [1]: A (50-100); mortality at 50 µg/cm2 [2]: 50 to 100%
Cc1ccc(COCC(F)F)c(N2C(=O)CS/C2=N\C(=O)Nc2ccc(-n3cnc(-c4ccc(OC(F)(F)F)cc4)c3)cc2Cl)c1 [Compound J787, (Z)-1-(2-Chloro-4-(4-(4-(trifluoromethoxy)phenyl)-1H-imidazol-1-yl)phenyl)-3-(3-(2-((2,2-difluoroethoxy)methyl)-5-methylphenyl)-4-oxothiazolidin-2-ylidene)urea]	–	–	BAW rating (% control or mortality class) [1]: A (50-100); mortality at 50 µg/cm2 [2]: 50 to 100%
COCc1ccc(C)cc1N1C(=O)CS/C1=N\C(=O)Nc1ccc(-n2cnc(-c3ccc(OC(F)(F)F)cc3)c2)cc1Cl [Compound J788, (Z)-1-(2-Chloro-4-(4-(4-(trifluoromethoxy)phenyl)-1H-imidazol-1-yl)phenyl)-3-(3-(2-(methoxymethyl)-5-methylphenyl)-4-oxothiazolidin-2-ylidene)urea]	–	–	BAW rating (% control or mortality class) [1]: A (50-100); mortality at 50 µg/cm2 [2]: 50 to 100%
